Laboratory results: patent publication US12692259B2, “Morpholine-containing and piperazine-containing CXCR4 modulators and uses related thereto” (Emory University, priority 2021, dated 2026)
Each block holds one compound with its values, some of them ahead of it.

Legend:
[1] = molecular target: T1, CYP3A4 (Homo sapiens, UniProt P08684); experiment: Fluorometric CYP450 inhibition assay, CYP3A4; type: in vitro ADME; settings: read-out: CYP450 IC50 (μM) 3A4
T1 construct: purchased Corning; host or cells: insect cells (microsomes)
Method: (§1) The CYP450 inhibition assays utilized microsomes from insect cells expressing human recombinant individual cDNA-expressed CYP isoforms 3A4 and 2D6, as well as the fluorogenic probe that produces fluorescent metabolite. Standard inhibitors were co-incubated with fluorogenic substrates and their inhibitory potential (IC50) was determined. Assay conditions in terms of CYP450 protein concentration and time of incubation were standardized, enzyme kinetics parameters of each fluorescent probe substrate were estimated and IC50 values of inhibitors were determined and validated on different days to check reproducibility.
(§2) A 100 mM sodium phosphate buffer was prepared and adjusted to pH 7.4. In a separate falcon tube, a 2× enzyme/substrate (E/S) solution was prepared in phosphate buffer. The final concentration of CYP2D6 (CORNING®) and 7-amido-4-methyl coumaric acid (AMMC) was 10 nM and 4 μM, and CYP3A4 (CORNING®) and 7-benzyloxy-4-(trifluoromethyl) coumarin (BFC) was 20 nM and 40 μM, respectively. In a separate falcon tube, a 2×NADPH regenerating system (NRS) was prepared in phosphate buffer.
(§3) Both enzymatic assays were conducted in a 96-well microtiter plate (Black, CORNING® COSTAR®) with a final volume of 100 μL. Preparation of the plate began with the addition of 74 μL of the E/S in the first well, and 50 μL to all subsequent wells (from 2-11). […] A 1:3 serial dilution of the test compound was conducted by removing 25 μL from the first well and diluting it with the second and so forth until the tenth row. Final concentrations yielded a range from 200 μM-0.01 μM. Well no. 11 contained no inhibitor, and well no. 12 contained no enzyme. Both were used as controls for background fluorescence. The plate was incubated for 30 min at 37° C. After incubation, the reaction was initiated by the addition of 50 μL of the 2×NRS to each well.
(§4) Immediately (within 1 min) the fluorescence was measured using a microplate reader (BIOTEK® Synergy Neo2). […] Data was exported and analyzed using Graph Pad Prism 7. […] The IC50 value was derived after the data was fitted on a 10-point curve using a four-parameter logistic regression model.

[2] = molecular target: T2, CYP2D6 (Homo sapiens, UniProt P10635); experiment: Fluorometric CYP450 inhibition assay, CYP2D6; type: in vitro ADME; settings: read-out: CYP450 IC50 (μM) 2D6
T2 construct: purchased Corning; host or cells: insect cells (microsomes)
Method: as §1, §2, §3, §4

[3] = Metabolic stability assay, human liver microsomes (HLM); type: in vitro ADME; settings: for half-life at 3 µM: pH 7.4, read-out: Liver Microsomes T1/2 (min) H
Text: Controls were processed and analyzed like the test compounds.

[4] = in vitro; settings: mouse, pH 7.4; for half-life at 3 µM: microsomes; for Liver Microsomes % rem. @ 10 min. M: 3 µM
Method: Metabolic stability assay was performed at Emory University's Department of Chemistry or by Bristol Myers Squibb. The method used by Emory University's Department of Chemistry is described below.
Each method was developed in the presence of an internal standard (ISTD) d5-7-ethoxy coumarin. The column temperature was maintained at 40° C. for most of the samples otherwise noted. The detection was operated in the Agilent JetStream electrospray positive ionization using multiple reaction monitoring mode (MRM).
Other MS conditions were as follows: dwell time 100 ms; gas flow 10 L/min; nebulizer pressure 45 psi; delta EMV 200 V; fragmentor voltage and collision energy for individual compounds vary.
Test compounds were dissolved in 100% DMSO or 100% MeOH to make 10 mM stock solutions. Verapamil (Sigma Aldrich) aided as a positive control and was dissolved in 100% DMSO to make 10 mM stock solutions. The 10 mM stock solution of test and control compounds were further diluted in potassium phosphate buffer (100 mM, pH 7.4) to 500 μM to ensure the organic solvent content was <0.2%. Human liver microsomes (HLMs) were purchased from Xenotech at 20 mg/mL. NADPH (Sigma Aldrich) 10 mM stocks were prepared in deionized water.
The HLM assay was prepared in a 1.5 mL Eppendorf tube with a final volume of 1100 μL for duplicate runs. Each reaction contained phosphate buffer (928.4 μL), liver microsomes (55 μL), and test compound resulting in a final concentration of 3 μM (6.6 μL of 500 μM). The reaction was initiated with 110 μL of 10 mM NADPH. […] Before centrifugation each of the aliquoted tubes were vortexed to make sure compounds were in the solution. The aliquots were centrifuged at 12,000 g for 5 min and the supernatant removed and placed in an LC-MS vial. Each time point was assessed using LC-MS and the area, based on the extracted ion, was integrated with respect to the ISTD. […] A no-NADPH negative control with test or control compound was performed in a single run (150 μL) at the longest time point. Controls were processed and analyzed like the test compounds. Each time point was run in duplicates followed by in-between blank washes to avoid the carryover and to equilibrate the column.
The MLM assay was performed using the same procedures as those described above for the HLM assay.

T1 sequence (P08684 whole entry): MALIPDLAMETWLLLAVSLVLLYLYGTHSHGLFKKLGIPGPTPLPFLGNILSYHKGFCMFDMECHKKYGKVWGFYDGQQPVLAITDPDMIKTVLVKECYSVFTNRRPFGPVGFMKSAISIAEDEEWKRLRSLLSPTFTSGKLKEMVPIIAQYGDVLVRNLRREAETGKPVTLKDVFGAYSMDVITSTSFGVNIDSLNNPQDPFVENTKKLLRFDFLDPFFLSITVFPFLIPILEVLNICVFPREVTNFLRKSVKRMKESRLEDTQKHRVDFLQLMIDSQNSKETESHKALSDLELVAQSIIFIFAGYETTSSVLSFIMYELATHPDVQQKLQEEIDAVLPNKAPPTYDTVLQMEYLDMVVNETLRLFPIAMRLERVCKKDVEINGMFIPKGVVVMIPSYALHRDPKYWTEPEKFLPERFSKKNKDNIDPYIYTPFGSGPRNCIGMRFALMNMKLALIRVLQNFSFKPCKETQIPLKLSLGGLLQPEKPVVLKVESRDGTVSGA
T2 sequence (P10635 whole entry): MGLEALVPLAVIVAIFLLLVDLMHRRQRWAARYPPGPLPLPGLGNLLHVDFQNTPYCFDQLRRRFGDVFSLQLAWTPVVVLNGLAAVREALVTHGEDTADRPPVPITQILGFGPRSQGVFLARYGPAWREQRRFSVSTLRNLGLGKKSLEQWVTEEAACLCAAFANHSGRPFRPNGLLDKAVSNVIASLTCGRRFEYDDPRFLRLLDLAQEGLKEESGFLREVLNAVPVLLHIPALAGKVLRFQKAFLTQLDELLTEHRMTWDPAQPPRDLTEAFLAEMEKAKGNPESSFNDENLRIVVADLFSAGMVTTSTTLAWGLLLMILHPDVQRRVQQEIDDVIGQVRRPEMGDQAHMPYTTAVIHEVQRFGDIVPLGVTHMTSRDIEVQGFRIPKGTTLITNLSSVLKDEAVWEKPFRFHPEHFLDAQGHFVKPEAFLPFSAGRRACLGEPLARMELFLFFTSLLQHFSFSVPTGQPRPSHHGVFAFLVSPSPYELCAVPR

Structure (SMILES): CN1CCN(c2cccc3c2C[C@H](CN(C)[C@H]2CCCc4cccnc42)NC3)CC1=O [EMU-255, 1-methyl-4-((R)-3-((methyl((S)-5,6,7,8-tetrahydroquinolin-8-yl)amino)methyl)-1,2,3,4-tetrahydroisoquinolin-5-yl)piperazin-2-one]
IC50 [1]: 13.7 µM
IC50 [2]: 43.1 µM
half-life at 3 µM [3]: 16 min
half-life at 3 µM [4]: 17 min

Structure (SMILES): CN1CCN(c2cccc3c2C[C@@H](CN(C)[C@H]2CCCc4cccnc42)NC3)C(=O)C1 [EMU-251, 4-methyl-1-((S)-3-((methyl((S)-5,6,7,8-tetrahydroquinolin-8-yl)amino)methyl)-1,2,3,4-tetrahydroisoquinolin-5-yl)piperazin-2-one]
IC50 [1]: 48.4 µM
IC50 [2]: > 50 µM
half-life at 3 µM [3]: 288 min
half-life at 3 µM [4]: 126 min

Structure (SMILES): CN(C[C@H]1Cc2c(cccc2N2CCNC(=O)C2)CN1)[C@H]1CCCc2cccnc21 [EMU-254, 4-((R)-3-((methyl((S)-5,6,7,8-tetrahydroquinolin-8-yl)amino)methyl)-1,2,3,4-tetrahydroisoquinolin-5-yl)piperazin-2-one]
IC50 [1]: 14.3 µM
IC50 [2]: 8.1 µM
half-life at 3 µM [3]: 37 min
half-life at 3 µM [4]: 35 min

Structure (SMILES): CN(C[C@H]1Cc2c(cccc2N2CC3COC2C3)CN1)[C@H]1CCCc2cccnc21 (stereo in doubt) [EMU-324, (S)—N—(((R)-5-((1S,4R)-2-oxa-6-azabicyclo[2.2.1]heptan-6-yl)-1,2,3,4-tetrahydroisoquinolin-3-yl)methyl)-N-methyl-5,6,7,8-tetrahydroquinolin-8-amine]
IC50 [1]: 3.5 µM
IC50 [2]: > 20 µM
Liver Microsomes % rem. @ 10 min. H [3]: 48.5%
Liver Microsomes % rem. @ 10 min. M [4]: 36.9%

Structure (SMILES): CN(C[C@H]1Cc2c(cccc2N2CCN3CCOC[C@H]3C2)CN1)[C@H]1CCCc2cccnc21 [EMU-343, (S)—N—(((R)-5-((R)-hexahydropyrazino[2,1-c][1,4]oxazin-8(1H)-yl)-1,2,3,4-tetrahydroisoquinolin-3-yl)methyl)-N-methyl-5,6,7,8-tetrahydroquinolin-8-amine]
IC50 [1]: > 20 µM
IC50 [2]: 4.1 µM
Liver Microsomes % rem. @ 10 min. H [3]: 23.7%
Liver Microsomes % rem. @ 10 min. M [4]: 33.8%

Further lines, results first:

IC50 [1]: 7.82 µM
IC50 [2]: 4.47 µM
half-life at 3 µM [3]: 4.9 min
half-life at 3 µM [4]: 7.4 min
Structure (SMILES): CCOC(=O)N1CCN(c2cccc3c2C[C@H](CN(C)[C@H]2CCCc4cccnc42)NC3)CC1 [EMU-261, ethyl 4-((R)-3-((methyl((S)-5,6,7,8-tetrahydroquinolin-8-yl)amino)methyl)-1,2,3,4-tetrahydroisoquinolin-5-yl)piperazine-1-carboxylate]

IC50 [1]: 16.3 µM
IC50 [2]: > 50 µM
half-life at 3 µM [3]: 16 min
half-life at 3 µM [4]: 5.5 min
Structure (SMILES): CC(=O)N1CCN(c2cccc3c2C[C@H](CN(C)[C@H]2CCCc4cccnc42)NC3)CC1 [EMU-262, 1-(4-((R)-3-((methyl((S)-5,6,7,8-tetrahydroquinolin-8-yl)amino)methyl)-1,2,3,4-tetrahydroisoquinolin-5-yl)piperazin-1-yl)ethan-1-one]

IC50 [1]: 24.1 µM
IC50 [2]: 34.4 µM
half-life at 3 µM [3]: 10 min
half-life at 3 µM [4]: 3 min
Structure (SMILES): CN(C[C@H]1Cc2c(cccc2N2CCN(S(C)(=O)=O)CC2)CN1)[C@H]1CCCc2cccnc21 [EMU-263, (S)—N-methyl-N—(((R)-5-(4-(methylsulfonyl)piperazin-1-yl)-1,2,3,4-tetrahydroisoquinolin-3-yl)methyl)-5,6,7,8-tetrahydroquinolin-8-amine]

IC50 [1]: 3.2 µM
Liver Microsomes % rem. @ 10 min. H [3]: 74.7%
Liver Microsomes % rem. @ 10 min. M [4]: 91.6%
Structure (SMILES): CN1CCN(c2cccc3c2CC(CN(C)[C@H]2CCOc4cccnc42)NC3)CC1 (stereo partly drawn) [EMU-320, (4S)—N-methyl-N-((5-(4-methylpiperazin-1-yl)-1,2,3,4-tetrahydroisoquinolin-3-yl)methyl)-3,4-dihydro-2H-pyrano[3,2-b]pyridin-4-amine]
